Measurements from PubChem BioAssay AID1845211 (Molecular Pharmacology Branch, DTP, NCI, 2023).
Values joined by “and” are separate entries in the source; they are usually repeats but may differ in a detail not shown here. Identical values can stand only once.

Tested on: NCI-H322M multicellular tumor spheroids, viability (% test/control)
Assay: Anticancer human tumor NCI-H322M cell line growth inhibition;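 on viability, T/C: spheroids exposed to compound for seven days before readout; 100% = DMSO vehicle control wells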
Conditions: for viability, T/C: stronger effect = lower value
Text: Multicellular complex tumor spheroid response to DNA repair inhibitors in combination with DNA-damaging drugs
This study explores the anticancer activities of DNA-damaging drugs and inhibitors of DNA damage repair, both as single agents and in combinations. Complex tumor spheroids comprised of malignant cells, endothelial cells and mesenchymal stem cells served as an in vitro model for human solid tumors. This model system incorporates physiologically relevant features and patient-derived or established malignant cell lines with clinically relevant genetic alterations from many tumor types. Twenty-six patient-derived or established malignant cell lines were evaluated representing sarcoma, melanoma, small cell lung cancer (SCLC), non-small cell lung cancer (NSCLC), as well as bladder, ovarian and pancreatic cancers. The concentration ranges selected for each drug and investigational agent were based upon clinically achievable concentrations if the clinical Cmax of the agent was known.
Compounds. The drugs and compounds olaparib (NSC753686), talazoparib (NSC767125), berzosertib (NSC777718), elimusertib (NSC800525), nedisertib (NSC802822), VX-984 (NSC792969), AZD-1390 (NSC803789), temozolomide (NSC362856), topotecan (NSC609699), trabectedin (NSC813783), staurosporine (NSC755774), and gemcitabine (NSC613327) were obtained from the National Cancer Institute (NCI) Developmental Therapeutics Program Chemical Repository. The FDA-approved anticancer drug set is available from the Developmental Therapeutics Program at https://dtp.cancer.gov/organization/dscb/obtaining/available_plates.htm. […] The stock solutions were prepared in dimethyl sulfoxide (DMSO, Sigma-Aldrich, St. Louis, MO, cat. D2650) at 400-fold the tested concentration and stored at -70 degrees C. Prior to their use, the stock solutions were diluted in fresh medium and the final DMSO concentration in the assay was 0.25% (v/v). All drugs and investigational agents were tested over a range starting from a high concentration at or near the clinical Cmax and decreasing in half-log increments. If the clinical Cmax for an agent had not been determined, the highest concentration tested was 10 microM.
Cell Lines. The patient-derived cancer cell (PDC) lines: 156681-154-R-J1-PDC, 283228-195-R-J1-PDC, 287954-098-R-J1-PDC, 292921-168-R-J2-PDC, 349418-098-R-PDC, 425362-245-T-J1-PDC, 556581-035-R-J1-PDC, and BL0293-F563-PDC were received from the NCI Patient-Derived Models Repository (PDMR, https://pdmr.cancer.gov). The established cell lines HS-SY-2 (RRID:CVCL_8719), MPNST, and SYO-1 (RRID:CVCL_7146) were obtained from the Sloan Kettering Institute. The alveolar soft parts sarcoma cell line ASPS-1 (RRID:CVCL_S738) was established at the NCI and grown from internal seed stocks. The following established cell lines were purchased from the American Type Culture Collection (ATCC, Manassas, VA): G-401 (ATCC, cat. CRL-1441, RRID:CVCL_0270), SW982 (ATCC, cat. HTB-93, RRID:CVCL_1734), VA-ES-BJ (ATCC, cat. CRL-2138, RRID:CVCL_1785), NCI-H719 (ATCC, cat. CRL-5837, RRID:CVCL_1582), NCI-H196 (ATCC, cat. CRL-5823, RRID:CVCL_1509), NCI-H841 (ATCC, cat. CRL-5845, RRID:CVCL_1595), NCI-H1618 (ATCC, cat. CRL-5879, RRID:CVCL_1480), NCI-H1876 (ATCC, cat. CRL-5902, RRID:CVCL_1503), DMS 114 (ATCC, cat. CRL-2066; RRID:CVCL_1174), NCI-H211 (ATCC, cat. CRL-5824; RRID:CVCL_1529), and SW 1271 (ATCC, cat. CRL-2177, RRID:CVCL_1716). The small cell lung cancer cell line COR-L88 was purchased from Sigma-Aldrich (cat. 92031917-1VL, RRID:CVCL_1141). The non-small cell lung cancer cell lines NCI-H226 (RRID:CVCL_1544) and NCI-H322M (RRID:CVCL_1557) were established at the NCI and grown from internal seed stocks. Pooled donor human umbilical vein endothelial cells (HUVEC, Lonza, cat. CC-2519) and human mesenchymal stem cells (hMSC, Lonza, cat. PT-2501) were purchased from Lonza (Walkersville, MD).
Cell Culture. All cells were maintained in an incubator at 37 degrees C and 5% CO2 with 95% humidity. […]

COc1cc(C)[nH]c(=O)c1CN1CCc2c(Cl)cc(C(OC)C3COC3)c(Cl)c2C1=O (stereo unspecified) + COc1cc2c(cc1O)CCNC21CSC2c3c(OC(C)=O)c(C)c4c(c3C(COC1=O)N1C(O)C3Cc5cc(C)c(OC)c(O)c5C(C21)N3C)OCO4
IC50 (curve of first compound, second compound 30 pM): > 10 µM | IC50 (curve of first compound, second compound 94.9 pM): > 10 µM | IC50 (curve of first compound, second compound 0.0003 µM): > 10 µM | IC50 (curve of first compound, second compound 0.000949 µM): > 10 µM | IC50 (curve of first compound, second compound 0.003 µM): < 0.0316 µM | viability, T/C (second compound 30 pM, first compound 0.0316 µM): 75.3% | viability, T/C (second compound 30 pM, first compound 0.1 µM): 82.3% | viability, T/C (second compound 30 pM, first compound 0.316 µM): 80.6% | viability, T/C (second compound 30 pM, first compound 1 µM): 84% | viability, T/C (second compound 30 pM, first compound 3.16 µM): 84.4% | viability, T/C (second compound 30 pM, first compound 10 µM): 91.7% | viability, T/C (second compound 94.9 pM, first compound 0.0316 µM): 92.6% | viability, T/C (second compound 94.9 pM, first compound 0.1 µM): 77.5% | viability, T/C (second compound 94.9 pM, first compound 0.316 µM): 83.3% | viability, T/C (second compound 94.9 pM, first compound 1 µM): 81% | viability, T/C (second compound 94.9 pM, first compound 3.16 µM): 81.4% | viability, T/C (second compound 94.9 pM, first compound 10 µM): 84.1% | viability, T/C (second compound 0.0003 µM, first compound 0.0316 µM): 78.7% | viability, T/C (second compound 0.0003 µM, first compound 0.1 µM): 94.2% | viability, T/C (second compound 0.0003 µM, first compound 0.316 µM): 79% | viability, T/C (second compound 0.0003 µM, first compound 1 µM): 83.4% | viability, T/C (second compound 0.0003 µM, first compound 3.16 µM): 97.6% | viability, T/C (second compound 0.0003 µM, first compound 10 µM): 87.2% | viability, T/C (second compound 0.000949 µM, first compound 0.0316 µM): 81.8% | viability, T/C (second compound 0.000949 µM, first compound 0.1 µM): 82.2% | viability, T/C (second compound 0.000949 µM, first compound 0.316 µM): 82.8% | viability, T/C (second compound 0.000949 µM, first compound 1 µM): 78.8% | viability, T/C (second compound 0.000949 µM, first compound 3.16 µM): 74.7% | viability, T/C (second compound 0.000949 µM, first compound 10 µM): 79.5% | viability, T/C (second compound 0.003 µM, first compound 0.0316 µM): 6.18% | viability, T/C (second compound 0.003 µM, first compound 0.1 µM): 10.3% | viability, T/C (second compound 0.003 µM, first compound 0.316 µM): 6.44% | viability, T/C (second compound 0.003 µM, first compound 1 µM): 7.13% | viability, T/C (second compound 0.003 µM, first compound 3.16 µM): 4.79% | viability, T/C (second compound 0.003 µM, first compound 10 µM): 5.29%

COc1cc(C)[nH]c(=O)c1CN1CCc2c(Cl)cc(C(OC)C3COC3)c(Cl)c2C1=O (stereo unspecified)
viability, T/C (compound 0.0316 µM): 104% and 96.2% and 98.2% | viability, T/C (compound 0.1 µM): 87.7% and 103% and 84% | viability, T/C (compound 0.316 µM): 89.9% and 91.7% and 80.2% | viability, T/C (compound 1 µM): 74.3% and 84.4% and 89.6% | viability, T/C (compound 3.16 µM): 93.3% and 91.8% and 102% | viability, T/C (compound 10 µM): 82% and 96.2% and 93.1% | IC50 (curve of compound): > 10 µM

CC[C@@]1(O)C(=O)OCc2c1cc1n(c2=O)Cc2cc3c(CN(C)C)c(O)ccc3nc2-1
viability, T/C (compound 0.003 µM): 89.7% [middle of 10 runs] | viability, T/C (compound 0.0949 µM): 67.4% [middle of 10 runs] | viability, T/C (compound 0.3 µM): 51.5% [middle of 10 runs] | IC50 (compound alone, run of 12/12/2019): > 0.3 µM and 0.254 µM
